Experimental data published in patent US4159328A, “Tetrahydro-1,3,5-thiadiazin-4-one derivative” (Nihon Nohyaku Co., Ltd., priority 1977, dated 1979).

Tested on: larvae of green rice leafhopper (Nephotettix cincticeps Uhler)
Experiment: Test Example 5: activity against larvae of green rice leafhopper
Assay type: in vivo
Details: 168 h, 400 ppm, second-instar larvae, 25° C., seven days after treatment, read-out: Mortality
Description: Activity against larvae of green rice leafhopper (Nephotettix cincticeps Uhler).
Testing method: Five rice seedlings of the 1.5 leaf age were dipped in a test composition of 400 ppm concentration for 30 seconds. After air-drying, the seedlings were placed in a glass tube containing 1 ml of water and infested with five second-instar larvae of green rice leafhopper. The glass tube was left standing in a constant temperature cabinet at 25° C. Seven days after the treatment, dead-and-survivalwas inspected to calculate the mortality (3-replication test).

Row | SMILES | mortality at 400 ppm
1 | CC(C)CN1CSC(=NC(C)C)N(C(C)C)C1=O [Compound 27] | 80%
2 | CC(C)N=C1SCN(C(C)(C)C)C(=O)N1C [Compound 33] | 100%
3 | CCN1C(=O)N(C(C)(C)C)CSC1=NC(C)(C)C [Compound 42] | 80%
4 | CN=C1SCN(C(C)(C)C)C(=O)N1C [Compound 31, 2-Methylimino-3-methyl-5-t-butyl-tetrahydro-1,3,5-thiadiazin-4-one] | 50%
5 | CN=C1SCN(C(C)C)C(=O)N1c1ccccc1 [Compound 66, 2-Methylimino-3-phenyl-5-isopropyltetrahydro-1,3,5-thiadiazin-4-one] | 80%
6 | CN=C1SCN(C(C)C)C(=O)N1C [Compound 16] | 100%
7 | CCCCN1CSC(=NC(C)C)N(C)C1=O [Compound 25] | 100%
8 | CCC(C)N1C(=O)N(c2ccc(OC)cc2)CSC1=NC(C)(C)C (centres unmarked) [Compound 355, 2-t-butylimino-3-s-butyl-5-(p-methoxyphenyl)-tetrahydro-1,3,5-thiadiazin-4-one] | 100%
9 | COc1ccc(N2CSC(=NC(C)(C)C)N(C(C)C)C2=O)cc1 [Compound 353, 2-t-Butylimino-3-isopropyl-5-(p-methoxyphenyl)tetrahydro-1,3,5-thiadiazin-4-one] | 100%
10 | CCC(C)N=C1SCN(c2ccc(F)cc2)C(=O)N1C(C)CC (centres unmarked) [Compound 283] | 90%
11 | Cc1ccccc1N1CSC(=NC(C)(C)C)N(C(C)C)C1=O [Compound 302] | 100%
12 | CC(C)N1C(=O)N(c2cccc(Cl)c2)CSC1=NC(C)(C)C [Compound 221, 2-t-Butylimino-3-isopropyl-5-(m-chlorophenyl)-tetrahydro-1,3,5-thiadiazin-4-one] | 100%

Tested on: two-spotted spider mite (Tetranychus urticae Koch)
Experiment: Test Example 3: activity to two-spotted spider mite
Assay type: in vivo
Details: 48 h, 1,000 ppm, 2 days after treatment
From the text: Activity to two-spotted spider mite (Tetranychus urticae Koch).
Testing method: Two-spotted spider mites were set free on the pot-planted soybean in a greenhouse. On the next day, a test composition of 1,000 ppm concentration was sprayed over the soybean by means of a spray gun. Two days or five days after the treatment, dead-and-survival was inspected to calculate the mortality.

Row | SMILES | mortality at 1000 ppm
13 | CC(C)CN1CSC(=NC(C)C)N(C(C)C)C1=O [Compound 27] | 80%
14 | CC(C)N=C1SCN(C(C)(C)C)C(=O)N1C [Compound 33] | 100%
15 | CCN1C(=O)N(C(C)(C)C)CSC1=NC(C)(C)C [Compound 42] | 100%
16 | CN=C1SCN(C(C)(C)C)C(=O)N1C [Compound 31, 2-Methylimino-3-methyl-5-t-butyl-tetrahydro-1,3,5-thiadiazin-4-one] | 100%
17 | CN=C1SCN(C(C)C)C(=O)N1c1ccccc1 [Compound 66, 2-Methylimino-3-phenyl-5-isopropyltetrahydro-1,3,5-thiadiazin-4-one] | 100%
18 | CN=C1SCN(C(C)C)C(=O)N1C [Compound 16] | 100%
19 | CCCCN1CSC(=NC(C)C)N(C)C1=O [Compound 25] | 100%

Same assay, conditions: 120 h, 1,000 ppm, 5 days after treatment

Row | SMILES | mortality at 1000 ppm
20 | CCC(C)N1C(=O)N(c2ccc(OC)cc2)CSC1=NC(C)(C)C (centres unmarked) [Compound 355, 2-t-butylimino-3-s-butyl-5-(p-methoxyphenyl)-tetrahydro-1,3,5-thiadiazin-4-one] | 100%
21 | COc1ccc(N2CSC(=NC(C)(C)C)N(C(C)C)C2=O)cc1 [Compound 353, 2-t-Butylimino-3-isopropyl-5-(p-methoxyphenyl)tetrahydro-1,3,5-thiadiazin-4-one] | 100%
22 | CCC(C)N=C1SCN(c2ccc(F)cc2)C(=O)N1C(C)CC (centres unmarked) [Compound 283] | 70%
23 | Cc1ccccc1N1CSC(=NC(C)(C)C)N(C(C)C)C1=O [Compound 302] | 70%
24 | CC(C)N1C(=O)N(c2cccc(Cl)c2)CSC1=NC(C)(C)C [Compound 221, 2-t-Butylimino-3-isopropyl-5-(m-chlorophenyl)-tetrahydro-1,3,5-thiadiazin-4-one] | 100%

Tested on: larvae of 28-spotted lady beetle (Epilachna vigintioctopunctana Fabricius)
Experiment: Test Example 8: insecticidal activity against larvae of 28-spotted lady beetle
Assay type: in vivo
Details: 120 h
Description: Insecticidal activity against larvae of 28-spotted lady beetle (Epilachna vigintioctopunctana Fabricius).
Testing method: Leaflets of tomato grown in a greenhouse were dipped in a test composition of 100 ppm concentration for 30 seconds and after that the leaflets were dried by air. In a Petri dish covered on the bottom with a piece of filter paper, were introduced 1 ml of water and three treated tomato leaflets. After having been infested with seven second-instar larvae of 28-spotted lady beetle, the Petri dish was left standing in a constant temperature cabinet at 25° C. Five days after the treatment, the dead-and-survival was inspected to calculate the mortality (2-replication test).

Row | SMILES | mortality at 100 ppm
25 | CCC(C)N1C(=O)N(c2ccc(OC)cc2)CSC1=NC(C)(C)C (centres unmarked) [Compound 355, 2-t-butylimino-3-s-butyl-5-(p-methoxyphenyl)-tetrahydro-1,3,5-thiadiazin-4-one] | 100%
26 | COc1ccc(N2CSC(=NC(C)(C)C)N(C(C)C)C2=O)cc1 [Compound 353, 2-t-Butylimino-3-isopropyl-5-(p-methoxyphenyl)tetrahydro-1,3,5-thiadiazin-4-one] | 100%
27 | CCC(C)N=C1SCN(c2ccc(F)cc2)C(=O)N1C(C)CC (centres unmarked) [Compound 283] | 90%
28 | Cc1ccccc1N1CSC(=NC(C)(C)C)N(C(C)C)C1=O [Compound 302] | 80%
29 | CC(C)N1C(=O)N(c2cccc(Cl)c2)CSC1=NC(C)(C)C [Compound 221, 2-t-Butylimino-3-isopropyl-5-(m-chlorophenyl)-tetrahydro-1,3,5-thiadiazin-4-one] | 90%

Tested on: larvae of house mosquito (Culex pipiens pallens Coquillett)
Experiment: Test Example 6: insecticidal activity to larvae of house mosquito
Assay type: in vivo
Details: 120 h
Description: Insecticidal activity to larvae of house mosquito (Culex pipiens pallens Coquillett).
Test method: In a 200-ml beaker, was placed together with a feed 100 ml of a test composition diluted with deionized water to 10 ppm concentration. The test composition was infested with 20 first-instar larvae of house mosquito and the beaker was covered with a sheet of Japanese paper. The beaker was kept in a constant temperature cabinet at 25° C. Five days after the treatment, the dead-and-survival was inspected to calculate the mortality.

Row | SMILES | mortality at 10 ppm
30 | CCC(C)N1C(=O)N(c2ccc(OC)cc2)CSC1=NC(C)(C)C (centres unmarked) [Compound 355, 2-t-butylimino-3-s-butyl-5-(p-methoxyphenyl)-tetrahydro-1,3,5-thiadiazin-4-one] | 90%
31 | COc1ccc(N2CSC(=NC(C)(C)C)N(C(C)C)C2=O)cc1 [Compound 353, 2-t-Butylimino-3-isopropyl-5-(p-methoxyphenyl)tetrahydro-1,3,5-thiadiazin-4-one] | 100%
32 | CCC(C)N=C1SCN(c2ccc(F)cc2)C(=O)N1C(C)CC (centres unmarked) [Compound 283] | 70%
33 | Cc1ccccc1N1CSC(=NC(C)(C)C)N(C(C)C)C1=O [Compound 302] | 100%
34 | CC(C)N1C(=O)N(c2cccc(Cl)c2)CSC1=NC(C)(C)C [Compound 221, 2-t-Butylimino-3-isopropyl-5-(m-chlorophenyl)-tetrahydro-1,3,5-thiadiazin-4-one] | 100%

Tested on: cirrus red mite (Panonychus citri McGregor)
Experiment: Test Example 4: activity to citrus red mite (Rothamstead method)
Assay type: in vivo
Parameters: concentration or dose not given beside the values
Details: two days after treatment, 25° C.; 2880 min
Description: Activity to cirrus red mite (Panonychus citri McGregor).
Testing method: The test was performed by Rothamstead method. A test composition was sprayed by means of a spray gun over grapefruit leaves infested with citrus red mites. After air-drying the grapefruit was left standing in a constant temperature cabinet at 25° C. Two days after the treatment, the number of survived mites was counted to calculate the mortality.

Row | SMILES | Mortality
35 | CC(C)CN1CSC(=NC(C)C)N(C(C)C)C1=O [Compound 27] | 100%
36 | CC(C)N=C1SCN(C(C)(C)C)C(=O)N1C [Compound 33] | 100%
37 | CCN1C(=O)N(C(C)(C)C)CSC1=NC(C)(C)C [Compound 42] | 100%
38 | CN=C1SCN(C(C)(C)C)C(=O)N1C [Compound 31, 2-Methylimino-3-methyl-5-t-butyl-tetrahydro-1,3,5-thiadiazin-4-one] | 100%
39 | CN=C1SCN(C(C)C)C(=O)N1c1ccccc1 [Compound 66, 2-Methylimino-3-phenyl-5-isopropyltetrahydro-1,3,5-thiadiazin-4-one] | 50%
40 | CN=C1SCN(C(C)C)C(=O)N1C [Compound 16] | 100%
41 | CCCCN1CSC(=NC(C)C)N(C)C1=O [Compound 25] | 80%

Tested on: larvae of white-backed planthopper (Sogatella furcifera Horvath)
Experiment: Test Example 2: insecticidal activity against larvae of white-backed planthopper
Assay type: in vivo
Details: 168 h, 400 ppm, first-instar larvae, 25° C., seven days after treatment, read-out: Mortality
Description: Insecticidal activity against larvae of white-backed planthopper (Sogatella furcifera Horvath).
Testing method: Five rice seedlings of the 1.5 leaf age were dipped in a test composition of 400 ppm concentration for 30 seconds. After air-drying, the seedlings were placed in a glass tube containing 1 ml of water and infested with five first-instar larvae of white-backed planthopper. The glass tube was left standing in a constant temperature cabinet at 25° C. and seven days after the treatment, dead-and-survival was observed. Mortality was calculated from the results of 3-replication test.

Row | SMILES | mortality at 400 ppm
42 | CC(C)CN1CSC(=NC(C)C)N(C(C)C)C1=O [Compound 27] | 100%
43 | CC(C)N=C1SCN(C(C)(C)C)C(=O)N1C [Compound 33] | 100%
44 | CCN1C(=O)N(C(C)(C)C)CSC1=NC(C)(C)C [Compound 42] | 100%
45 | CN=C1SCN(C(C)(C)C)C(=O)N1C [Compound 31, 2-Methylimino-3-methyl-5-t-butyl-tetrahydro-1,3,5-thiadiazin-4-one] | 100%
46 | CN=C1SCN(C(C)C)C(=O)N1c1ccccc1 [Compound 66, 2-Methylimino-3-phenyl-5-isopropyltetrahydro-1,3,5-thiadiazin-4-one] | 100%
47 | CN=C1SCN(C(C)C)C(=O)N1C [Compound 16] | 100%
48 | CCCCN1CSC(=NC(C)C)N(C)C1=O [Compound 25] | 100%
49 | CCC(C)N1C(=O)N(c2ccc(OC)cc2)CSC1=NC(C)(C)C (centres unmarked) [Compound 355, 2-t-butylimino-3-s-butyl-5-(p-methoxyphenyl)-tetrahydro-1,3,5-thiadiazin-4-one] | 100%
50 | COc1ccc(N2CSC(=NC(C)(C)C)N(C(C)C)C2=O)cc1 [Compound 353, 2-t-Butylimino-3-isopropyl-5-(p-methoxyphenyl)tetrahydro-1,3,5-thiadiazin-4-one] | 100%
51 | CCC(C)N=C1SCN(c2ccc(F)cc2)C(=O)N1C(C)CC (centres unmarked) [Compound 283] | 100%
52 | Cc1ccccc1N1CSC(=NC(C)(C)C)N(C(C)C)C1=O [Compound 302] | 100%
53 | CC(C)N1C(=O)N(c2cccc(Cl)c2)CSC1=NC(C)(C)C [Compound 221, 2-t-Butylimino-3-isopropyl-5-(m-chlorophenyl)-tetrahydro-1,3,5-thiadiazin-4-one] | 100%

Tested on: larvae of brown planthopper (Nilaparvata lugens Stahl)
Experiment: Test Example 1: insecticidal activity against larvae of brown planthopper
Assay type: in vivo
Details: 120 h, third-instar larvae, 25° C., 5 days after treatment
Method in brief: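 Rice seedlings at 1.5-leaf stage were dipped for 30 s in a 400 ppm test composition, air-dried, and infested with third-instar N. lugens larvae. After holding at 25 °C, mortality was scored 5 or 7 days post-treatment from three replicates.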

Row | SMILES | mortality at 400 ppm
54 | CCC(C)N1C(=O)N(c2ccc(OC)cc2)CSC1=NC(C)(C)C (centres unmarked) [Compound 355, 2-t-butylimino-3-s-butyl-5-(p-methoxyphenyl)-tetrahydro-1,3,5-thiadiazin-4-one] | 100%
55 | COc1ccc(N2CSC(=NC(C)(C)C)N(C(C)C)C2=O)cc1 [Compound 353, 2-t-Butylimino-3-isopropyl-5-(p-methoxyphenyl)tetrahydro-1,3,5-thiadiazin-4-one] | 100%
56 | CCC(C)N=C1SCN(c2ccc(F)cc2)C(=O)N1C(C)CC (centres unmarked) [Compound 283] | 100%
57 | Cc1ccccc1N1CSC(=NC(C)(C)C)N(C(C)C)C1=O [Compound 302] | 100%
58 | CC(C)N1C(=O)N(c2cccc(Cl)c2)CSC1=NC(C)(C)C [Compound 221, 2-t-Butylimino-3-isopropyl-5-(m-chlorophenyl)-tetrahydro-1,3,5-thiadiazin-4-one] | 100%

Same assay, conditions: 168 h, third-instar larvae, 25° C., 7 days after treatment

Row | SMILES | mortality at 400 ppm
59 | CC(C)CN1CSC(=NC(C)C)N(C(C)C)C1=O [Compound 27] | 100%
60 | CC(C)N=C1SCN(C(C)(C)C)C(=O)N1C [Compound 33] | 100%
61 | CCN1C(=O)N(C(C)(C)C)CSC1=NC(C)(C)C [Compound 42] | 100%
62 | CN=C1SCN(C(C)(C)C)C(=O)N1C [Compound 31, 2-Methylimino-3-methyl-5-t-butyl-tetrahydro-1,3,5-thiadiazin-4-one] | 80%
63 | CN=C1SCN(C(C)C)C(=O)N1c1ccccc1 [Compound 66, 2-Methylimino-3-phenyl-5-isopropyltetrahydro-1,3,5-thiadiazin-4-one] | 100%
64 | CN=C1SCN(C(C)C)C(=O)N1C [Compound 16] | 100%
65 | CCCCN1CSC(=NC(C)C)N(C)C1=O [Compound 25] | 100%
